Reference: patent publication US8420651B2, “Substituted 1-alkylcinnolin-4(1H)-one derivatives, preparation thereof and therapeutic application of same” (Sanofi, priority 2009, dated 2013)

| SMILES | melting point [°C] |
| --- | --- |
| CCCCCn1nc(-c2cccc(C(F)(F)F)c2F)c(=O)c2cccc(OC)c21 | 82 to 84 |
| CS(=O)(=O)NCCCn1nc(-c2cccc(Cl)c2Cl)c(=O)c2ccc(C(F)(F)F)cc21 | 80 to 83 |
| COc1cccc2c(=O)c(-c3cccc(Cl)c3Cl)nn(CCCN(C)S(C)(=O)=O)c12 | 179 to 181 |
| CCSCCn1nc(-c2cccc(Cl)c2Cl)c(=O)c2ccc(Cl)cc21 | 75 to 77 |
| CC[S+]([O-])CCn1nc(-c2cccc(Cl)c2Cl)c(=O)c2ccc(Cl)cc21 (stereo not drawn) | 75 to 77 |
| CCS(=O)(=O)CCn1nc(-c2cccc(Cl)c2Cl)c(=O)c2ccc(Cl)cc21 | 76 to 79 |
| COc1cccc2c(=O)c(-c3cccc(Cl)c3Cl)nn(CCCNS(=O)(=O)N(C)C)c12 | 62 to 65 |
| CCCCCn1nc(-c2cccc(C(F)(F)F)c2Cl)c(=O)c2cccc(OC)c21 | 90 to 91 |
| O=c1c(-c2cccc(C(F)(F)F)c2F)nn(CCCCC(F)(F)F)c2ccccc12 [Compound 4, 3-[2-Fluoro-3-(trifluoromethyl)phenyl]-1-(5,5,5-trifluoropentyl)cinnolin-4(1H)-one] | 118 to 120 |
| O=c1c(-c2cccc(C(F)(F)F)c2F)nn(CCCC(F)(F)F)c2ccccc12 [Compound 6, 3-[2-Fluoro-3-(trifluoromethyl)phenyl]-1-(4,4,4-trifluorobutyl)cinnolin-4(1H)-one] | 96 to 99 |
| CSCCCn1nc(-c2cccc(C(F)(F)F)c2F)c(=O)c2ccccc21 [Compound 7, 3-(2-Fluoro-3-(trifluoromethyl)phenyl)-1-[3-(methylthio)propyl]cinnolin-4(1H)-one] | 80 to 83 |
| COc1ccc(F)cc1-c1nn(CCCC(F)(F)F)c2ccccc2c1=O [Compound 16, 3-(5-Fluoro-2-methoxyphenyl)-1-(4,4,4-trifluorobutyl)cinnolin-4(1H)-one] | 118 to 121 |
| O=c1c(-c2cccc(C(F)(F)F)c2Cl)nn(CCCCC(F)(F)F)c2cc(Cl)ccc12 [Compound 17, 7 Chloro-3-[2-chloro-3-(trifluoromethyl)phenyl]-1-(5,5,5-trifluoropentyl)-cinnolin-4(1H)-one] | 137 to 138 |
| COc1cccc2c(=O)c(-c3cccc(C(F)(F)F)c3F)nn(CCCNS(C)(=O)=O)c12 [Compound 18, N-(3-[3-[2-Fluoro-3-(trifluoromethyl)phenyl]-8-methoxy-4-oxocinnolin-1(4H)-yl]propyl)methanesulphonamide] | 62 to 64 |
| COc1cccc2c(=O)c(-c3cccc(F)c3C(F)(F)F)nn(CCCNS(C)(=O)=O)c12 [Compound 20, N-[3-[3-[3-Fluoro-2-(trifluoromethyl)phenyl]-8-methoxy-4-oxocinnolin-1(4H)-yl]propyl]methanesulphonamide] | 66 to 68 |
| COc1cccc2c(=O)c(-c3cccc(C(F)(F)F)c3F)nn(CCCS(C)(=O)=O)c12 [Compound 24, 3-[2-Fluoro-3-(trifluoromethyl)phenyl]-1-(3-(methanesulphonyl)propyl)-8-methoxy-1H-cinnolin-4-one] | 138 to 139 |
| CS(=O)(=O)NCCCn1nc(-c2cccc(C(F)(F)F)c2F)c(=O)c2ccc(C(F)(F)F)cc21 [Compound 25, N-{3-[3-[2-Fluoro-3-(trifluoromethyl)phenyl]-4-oxo-7-trifluoromethyl-4H-cinnolin-1-yl]propyl}methanesulphonamide] | 128 to 130 |
| CCSCCn1nc(-c2cccc(C(F)(F)F)c2F)c(=O)c2cccc(OC)c21 [Compound 29, 1-[2-(Ethylthio)ethyl]-3-[2-fluoro-3-(trifluoromethyl)phenyl]-8-methoxycinnolin-4(1H)-one] | 73 to 75 |
| COc1cccc2c(=O)c(-c3cccc(OC(F)(F)F)c3)nn(CCCNS(C)(=O)=O)c12 [Compound 35, N-(3-{8-Methoxy-4-oxo-3-[3-(trifluoromethoxy)phenyl]cinnolin-1(4H)-yl}propyl)methanesulphonamide] | 98 to 101 |
| COc1cccc2c(=O)c(-c3cccc(C(F)(F)F)c3F)nn(CCCNS(=O)(=O)C(F)(F)F)c12 [Compound 36, 1,1,1-Trifluoro-N-(3-{3-[2-fluoro-3-(trifluoromethyl)phenyl]-8-methoxy-4-oxocinnolin-1(4H)-yl}propyl)methanesulphonamide] | 127 to 130 |
| COc1cccc2c(=O)c(-c3cccc(C(F)(F)F)c3F)nn(CCCNC(=O)C(F)(F)F)c12 [Compound 37, 2,2,2-Trifluoro-N-(3-{3-[2-fluoro-3-(trifluoromethyl)phenyl]-8-methoxy-4-oxocinnolin-1(4H)-yl}propyl)acetamide] | 51 to 53 |
| CS(=O)(=O)NCCCn1nc(-c2cccc(C(F)(F)F)c2F)c(=O)c2ccc(Cl)cc21 [Compound 38, N-(3-{7-Chloro-3-[2-fluoro-3-(trifluoromethyl)phenyl]-4-oxocinnolin-1(4H)-yl}propyl)methanesulphonamide] | 155 to 157 |
| CCSCCn1nc(-c2cccc(C(F)(F)F)c2F)c(=O)c2ccc(Cl)cc21 [Compound 41, 7-Chloro-1-[2-(ethylthio)ethyl]-3-[2-fluoro-3-(trifluoromethyl)phenyl]cinnolin-4(1H)-one] | 117 to 119 |
| CCSCCn1nc(-c2cccc(OC(F)(F)F)c2)c(=O)c2cccc(OC)c21 [Compound 49, 1-[2-(Ethylthio)ethyl]-8-methoxy-3-[3-(trifluoromethoxy)phenyl]cinnolin-4(1H)-one] | 86 to 89 |

The next lines start with the values.

| melting point [°C] | SMILES |
| --- | --- |
| 80 to 81 | O=c1c(-c2cccc(C(F)(F)F)c2)nn(CCCCC(F)(F)F)c2ccccc12 |
| 53 to 55 | CCCCCn1nc(-c2cccc(C(F)(F)F)c2)c(=O)c2ccccc21 |
| 66 to 68 | COc1cccc2c(=O)c(-c3cccc(Cl)c3Cl)nn(CCCNS(C)(=O)=O)c12 |
| 78 to 80 | CCCCCn1nc(-c2cccc(C(F)(F)F)c2F)c(=O)c2ccccc21 |
| 128 to 130 | CC[S+]([O-])CCn1nc(-c2cccc(Cl)c2Cl)c(=O)c2cccc(OC)c21 (stereo not drawn) |
| 50 to 52 | CCCCCn1nc(-c2cccc(OC(F)(F)F)c2)c(=O)c2cccc(OC)c21 |
| 134 to 135 | CCOCCn1nc(-c2cccc(Cl)c2Cl)c(=O)c2cccc(OC)c21 |
| 91 to 93 | O=c1c(-c2cccc(C(F)(F)F)c2F)nn(CCCCF)c2ccccc12 |
| 95 to 98 | COc1cccc2c(=O)c(-c3cccc(C(F)(F)F)c3Cl)nn(CCCNS(C)(=O)=O)c12 [Compound 19, N-[3-[3-[2-Chloro-3-(trifluoromethyl)phenyl]-8-methoxy-4-oxocinnolin-1(4H)-yl]propyl]methanesulphonamide] |
| 149 to 152 | CS(=O)(=O)NCCCn1nc(-c2cccc(C(F)(F)F)c2F)c(=O)c2ccccc21 [Compound 27, N-{3-[3-[2-Fluoro-3-(trifluoromethyl)phenyl]-4-oxo-4H-cinnolin-1-yl]-propyl}methanesulphonamide] |
| 99 to 101 | CC[S+]([O-])CCn1nc(-c2cccc(C(F)(F)F)c2F)c(=O)c2cccc(OC)c21 (stereo not drawn) [Compound 30, 1-[2-(Ethylsulphinyl)ethyl]-3-[2-fluoro-3-(trifluoromethyl)phenyl]-8-methoxycinnolin-4(1H)-one] |
| 138 to 139 | CCS(=O)(=O)CCn1nc(-c2cccc(C(F)(F)F)c2F)c(=O)c2cccc(OC)c21 [Compound 31, 1-[2-(Ethylsulphonyl)ethyl]-3-[2-fluoro-3-(trifluoromethyl)phenyl]-8-methoxycinnolin-4(1H)-one] |
| 66 to 68 | CCSCCn1nc(-c2cccc(OC(F)(F)F)c2)c(=O)c2ccc(Cl)cc21 [Compound 46, 7-Chloro-1-[2-(ethylthio)ethyl]-3-[3-(trifluoromethoxy)phenyl]cinnolin-4(1H)-one] |
| 130 to 132 | CCS(=O)(=O)CCn1nc(-c2cccc(OC(F)(F)F)c2)c(=O)c2cccc(OC)c21 [Compound 50, 1-[2-(Ethylsulphonyl)ethyl]-8-methoxy-3-[3-(trifluoromethoxy)phenyl]cinnolin-4(1H)-one] |
| 145 to 146 | COc1cccc2c(=O)c(-c3cccc(C(F)(F)F)c3F)nn(CCNS(C)(=O)=O)c12 [Compound 55, N-(2-{3-[2-Fluoro-3-(trifluoromethyl)phenyl]-8-methoxy-4-oxocinnolin-1(4H)-yl}ethyl)methanesulphonamide] |
